Results on 4 compounds are retold here after patent publication US20020137154A1, “Methods for improving cell growth and alcohol production during fermentation” (priority 2000, published 2002).

The subject of assay [1] is recombinant Escherichia coli KO11. As to the kind of experiment: Batch fermentation of E. coli KO11 in 1% CSL medium and xylose with nutrient additives: ethanol production and cell growth. Type of assay: cell-based. As to conditions: additive 2 g/L unless indicated; for activity at 2000 µg/mL: Escherichia coli. On the procedure:
(§1) Two types of media were tested: 1% CSL and Luria broth (LB). Each contained 97 g of either xylose or glucose per liter. Luria Broth consists of, per liter: 10 g Difco® Tryptone, 5 g Difco® Yeast Extract and 5 g NaCl. The 1% CSL medium consists of Corn Steep Liquor (1% w/v) plus mineral salts (mineral salts per liter: 1 g of KH2PO4. 0.5 g of K2HPO4, 3.1 g of (NH4)2SO4, 0.4 g of MgCl2·6H2), and 20 mg FeCl3·6H2O).
(§2) Luria Broth was prepared by autoclaving a 2× nutrient stock containing, per liter: 20 g Difco® Tryptone, 10 g Difo® Yeast Extract, and 10 g NaCl. Sugars (xylose or glucose) were autoclaved separately. A 1% CSL medium was prepared as follows: Commercial Corn Steep Liquor (CSL; 50% dry weight/50% water) was diluted with tap water to make a 20X stock containing 100 g dry weight of Corn Steep Liquor/L and was adjusted to pH 7.2 with NaOH (50%). After sterilization by autoclaving, the 20X CSL stock was clarified by centrifugation at 5000×g for 10 minutes. Magnesium was added as a 100× stock solution (40 g/L MgCl2·6H2O). Iron was added as a 1000× stock solution made by dissolving 20 g FeCl3·6H2O in 175 mL of HCl and adjusting to 1 L with sterile water. Nitrogen, sulfur and phosphorus were added using a 20× stock solution containing the following (per liter): 20 g of KH2PO4, 10 g of K2HPO4 and 62 g of (NH4)2SO4. Stock solutions containing minerals were sterilized separately by autoclaving. Final media was prepared by adding 750 mL of water to 1 L bottle containing 100 g of xylose or glucose.
Inocula were grown in same media used for fermentation and were prepared as follows. Three colonies from a fresh plate were used to inoculate seed cultures: 250-mL flask containing 100 mL medium. These cultures were grown with agitation (120 rpm) for 12-16 hours at 35° C. to a final OD550nm of approximately 2.0-2.5. Cells were harvested by centrifugation at 5000×g for 5 minutes, and resuspended in fresh media to an OD550nm of 0.1. The resulting suspension was distributed into 500-mL beakers containing 345 ml each of fermentation medium. Acetaldehyde was added as indicated. Batch fermentations (35° C., 100 rpm) were maintained at pH 6.5 by the automatic addition of 2N KOH. Cell mass, ethanol, and base addition (2N KOH) were recorded during 96 hours of incubation. […]
(§3) Additives (e.g., as listed in Table 1) were dissolved in 5 mL di-H2O. Solutions with pH lower than 5 were neutralized to pH 6.5 with 2N KOH. Nutritional supplements were then filter-sterilized (0.45 μm filter disk) directly into the fermentation vessel containing the culture. The final concentration of all additives in the culture medium was 2 g/L unless otherwise indicated.
(§4) Cell mass was estimated by measuring OD550nm using Baush & Lomb® Spectronic 70 spectrophotometer. […] Ethanol was measured by gas chromatography using a Varian® 3400 CX gas chromatograph with 1-propanol as an internal standard.
(§5) Tables 1, 3, and 5 show time to completion of fermentation, ethanol production, and volumetric productivity of the fermentation for all concentrations of the compound and the control. Maximum ethanol production is shown in grams/liter (g/L). The ethanol yield is shown in grams of ethanol/grams of added sugar. Maximum volumetric productivity is shown in grams ethanol/(liter)(hour). The average productivity is calculated form the start of fermentation to the completion of fermentation is grams ethanol/(liter)hour).
Tables 2, 4, and 6 show the initial growth of the cells (OD taken after the first 24 hours of fermentation) and the maximum cell density (the time which culture reaches the maximum OD value). […]

Assay [2] shares this test system. As to the kind of experiment: Batch fermentation of E. coli KO11 in 1% CSL medium and glucose with nutrient additives: ethanol production and cell growth. The format is cell-based. As to conditions: additive 2 g/L unless indicated; for activity at 2000 µg/mL: Escherichia coli. On the procedure:
as §1, §2
Inocula were grown in same media used for fermentation and were prepared as follows. Three colonies from a fresh plate were used to inoculate seed cultures: 250-mL flask containing 100 mL medium. These cultures were grown with agitation (120 rpm) for 12-16 hours at 35° C. to a final OD550nm of approximately 2.0-2.5. Cells were harvested by centrifugation at 5000×g for 5 minutes, and resuspended in fresh media to an OD550nm of 0.1. The resulting suspension was distributed into 500-mL beakers containing 345 ml each of fermentation medium. Acetaldehyde was added as indicated. Batch fermentations (35° C., 100 rpm) were maintained at pH 6.5 by the automatic addition of 2N KOH. Cell mass, ethanol, and base addition (2N KOH) were recorded during 96 hours of incubation.
Equivalent amounts of distilled water were added instead of the acetaldehyde in control experiments.
as §3, §4, §5
Tables 2, 4, and 6 show the initial growth of the cells (OD taken after the first 24 hours of fermentation) and the maximum cell density (the time which culture reaches the maximum OD value).
Acetaldehyde was added to the fermentation medium at five different concentrations and time points. […] Where two additions are indicated, the first volume was added at the start of fermentation and the second was added after 8 hours of fermentation.

The mark [3] stands for this setting: 24 h, read-out: Initial Growth (OD @ 24 h) % Control, 1% CSL+xylose.
Setting [4] is: read-out: Ethanol Production Maximum % Control, 1% CSL+xylose.
Setting [5] is: read-out: Maximum Cell Density % Control, 1% CSL+xylose.
Setting [6] is: read-out: Volumetric Productivity Average % Control, 1% CSL+xylose.
[7] abbreviates: read-out: Volumetric Productivity Maximum % Control, 1% CSL+xylose.
Where [8] appears, read: 24 h, read-out: Initial Growth (OD @ 24 h) % Control, 1% CSL+glucose.
Setting [9] is: read-out: Ethanol Production Maximum % Control, 1% CSL+glucose.
The mark [10] stands for this setting: read-out: Maximum Cell Density % Control, 1% CSL+glucose.
Setting [11] is: read-out: Volumetric Productivity Average % Control, 1% CSL+glucose.
[12] abbreviates: read-out: Volumetric Productivity Maximum % Control, 1% CSL+glucose.

Structures are written as SMILES.

With `C[C@H](N)C(=O)O` [Alanine, alanine], the entries for the “Ethanol Production Maximum” value in assay [1] (1% CSL+xylose) and in assay [2] (1% CSL+glucose) were 21.66 g/L and 34.37 g/L, respectively. In addition, the values for the Ethanol yield in assay [1] (1% CSL+xylose) and in assay [2] (1% CSL+glucose) were 0.223 grams of ethanol/grams of added sugar and 0.354 grams of ethanol/grams of added sugar, respectively. Further, the figures for the “Initial Growth (OD @ 24 h) OD” value in assay [1] (1% CSL+xylose) and in assay [2] (1% CSL+glucose) were 1.66 OD and 2.08 OD, respectively. Besides, the results for the “Maximum Cell Density OD” value in assay [1] (1% CSL+xylose) and in assay [2] (1% CSL+glucose) were 1.73 OD and 2.68 OD, respectively. Also, in assay [1] (1% CSL+xylose), the “Maximum Cell Density Time” value was 48 h. The “Volumetric Productivity Average” value is reported as 0.226 grams ethanol/(liter)(hour) in assay [1] (1% CSL+xylose) and 0.358 grams ethanol/(liter)(hour) in assay [2] (1% CSL+glucose). For the same compound, the “Volumetric Productivity Maximum” value in assay [1] (1% CSL+xylose) is recorded as 0.240 grams ethanol/(liter)(hour); in assay [2] (1% CSL+glucose), 0.468 grams ethanol/(liter)(hour). Also, the activity at 2000 µg/mL was 81.3% in assay [1] (setting [3]); 72% in assay [1] (setting [4]); 68.8% in assay [1] (setting [5]); 72% in assay [1] (setting [6]); 65.2% in assay [1] (setting [7]); 78% in assay [2] (setting [8]). Also, the activity at 2000 µg/mL in assay [2] (setting [9]) was 92.9%; in assay [2] (setting [10]) it was 99.8%; in assay [2] (setting [11]), 92.9%; in assay [2] (setting [12]) it was 91.1%.
In the case of `N[C@@H](CC(=O)O)C(=O)O` [Aspartate, aspartate], the entries for the “Ethanol Production Maximum” value in assay [1] (1% CSL+xylose) and in assay [2] (1% CSL+glucose) were 27.90 g/L and 41.79 g/L, respectively. Besides, the Ethanol yield is recorded as 0.287 grams of ethanol/grams of added sugar in assay [1] (1% CSL+xylose) and 0.430 grams of ethanol/grams of added sugar in assay [2] (1% CSL+glucose). Also, the “Initial Growth (OD @ 24 h) OD” value in assay [1] (1% CSL+xylose) worked out at 1.76 OD; in assay [2] (1% CSL+glucose) it was 2.86 OD. Moreover, the “Maximum Cell Density OD” value in assay [1] (1% CSL+xylose) is recorded as 2.45 OD; in assay [2] (1% CSL+glucose) it was 3.79 OD. Also, the “Maximum Cell Density Time” value in assay [1] (1% CSL+xylose) is recorded as 72 h. Also, the “Volumetric Productivity Average” value in assay [1] (1% CSL+xylose) was 0.291 grams ethanol/(liter)(hour); in assay [2] (1% CSL+glucose), 0.580 grams ethanol/(liter)(hour). The “Volumetric Productivity Maximum” value in assay [1] (1% CSL+xylose) is 0.304 grams ethanol/(liter)(hour); in assay [2] (1% CSL+glucose), 0.759 grams ethanol/(liter)(hour). Moreover, the activity at 2000 µg/mL in assay [1] (setting [3]) is 86.3%; in assay [1] (setting [4]), 92.7%; in assay [1] (setting [5]), 97.2%; in assay [1] (setting [6]), 92.7%; in assay [1] (setting [7]) it was 82.4%; in assay [2] (setting [8]), 107%. For the same compound, the activity at 2000 µg/mL is 113% in assay [2] (setting [9]), 141% in assay [2] (setting [10]), 151% in assay [2] (setting [11]) and 148% in assay [2] (setting [12]).
Consider `O=C(O)CC(O)(CC(=O)O)C(=O)O` [Citrate], for which the “Ethanol Production Maximum” value is listed as 28.80 g/L in assay [1] (1% CSL+xylose) and 32.87 g/L in assay [2] (1% CSL+glucose). Moreover, the Ethanol yield was 0.296 grams of ethanol/grams of added sugar in assay [1] (1% CSL+xylose) and 0.338 grams of ethanol/grams of added sugar in assay [2] (1% CSL+glucose). Moreover, the “Initial Growth (OD @ 24 h) OD” value stood at 2.12 OD in assay [1] (1% CSL+xylose) and 2.43 OD in assay [2] (1% CSL+glucose). Moreover, the “Maximum Cell Density OD” value in assay [1] (1% CSL+xylose) was 2.47 OD; in assay [2] (1% CSL+glucose), 2.58 OD. Moreover, in assay [1] (1% CSL+xylose), the “Maximum Cell Density Time” value was 96 h. Besides, the entries for the “Volumetric Productivity Average” value in assay [1] (1% CSL+xylose) and in assay [2] (1% CSL+glucose) were 0.300 grams ethanol/(liter)(hour) and 0.342 grams ethanol/(liter)(hour), respectively. The “Volumetric Productivity Maximum” value in assay [1] (1% CSL+xylose) is recorded as 0.339 grams ethanol/(liter)(hour); in assay [2] (1% CSL+glucose) it was 0.502 grams ethanol/(liter)(hour). The activity at 2000 µg/mL is 104% in assay [1] (setting [3]); 95.7% in assay [1] (setting [4]); 98.1% in assay [1] (setting [5]); 95.7% in assay [1] (setting [6]); 92% in assay [1] (setting [7]); 91% in assay [2] (setting [8]). The activity at 2000 µg/mL was found to be 88.9% in assay [2] (setting [9]), 96% in assay [2] (setting [10]), 88.9% in assay [2] (setting [11]) and 97.8% in assay [2] (setting [12]).
In the case of `O=C(O)/C=C/C(=O)O` [Fumarate], in assay [1] (1% CSL+xylose), the “Ethanol Production Maximum” value was found to be 28.49 g/L, the “Ethanol Production Maximum % Control” value is recorded as 94.73%, the Ethanol yield is given as 0.293 grams of ethanol/grams of added sugar and the “Initial Growth (OD @ 24 h) % Control” value is reported as 91.16%. Also, in assay [1] (1% CSL+xylose), the “Initial Growth (OD @ 24 h) OD” value is 1.86 OD, the “Maximum Cell Density % Control” value is given as 103.15%, the “Maximum Cell Density OD” value came out at 2.60 OD and the “Maximum Cell Density Time” value is 96 h. Moreover, in assay [1] (1% CSL+xylose), the Time to completion is listed as above 96 h, the “Volumetric Productivity Average” value is listed as 0.297 grams ethanol/(liter)(hour), the “Volumetric Productivity Average % Control” value is 94.73% and the “Volumetric Productivity Maximum” value was 0.345 grams ethanol/(liter)(hour). Besides, the “Volumetric Productivity Maximum % Control” value in assay [1] (1% CSL+xylose) was determined as 93.682%. Moreover, in assay [2] (1% CSL+glucose), the “Ethanol Production Maximum” value amounted to 32.92 g/L, the “Ethanol Production Maximum % Control” value amounted to 88.98%, the Ethanol yield is on record as 0.339 grams of ethanol/grams of added sugar and the “Initial Growth (OD @ 24 h) % Control” value is 99.76%. Besides, in assay [2] (1% CSL+glucose), the “Initial Growth (OD @ 24 h) OD” value is 2.67 OD, the “Maximum Cell Density % Control” value is given as 117.92%, the “Maximum Cell Density OD” value stood at 3.17 OD and the “Maximum Cell Density Time” value amounted to 72 h. In assay [2] (1% CSL+glucose), the Time to completion is 96 h, the “Volumetric Productivity Average” value is 0.343 grams ethanol/(liter)(hour), the “Volumetric Productivity Average % Control” value is reported as 88.98% and the “Volumetric Productivity Maximum” value is 0.559 grams ethanol/(liter)(hour). The “Volumetric Productivity Maximum % Control” value in assay [2] (1% CSL+glucose) stood at 108.88%.
